# Laboratory results from PMC12801355, “Peptide Amphiphiles Hitchhike on Endogenous Biomolecules for Enhanced Cancer Imaging and Therapy” (Advanced Materials (Deerfield Beach, Fla.), 2025).
# Where a SMILES comes first, the peptide text is derived from it. The star is where a group is joined. Palmitoyl = CCCCCCCCCCCCCCCC(=O)*
# Experiments:
# [1] = tested on: 4T1 mouse breast cancer cells; test: Cellular uptake of Cy5 labeled PAs; type: cell-based; details: 10 µM Cy5‐PA, 2 h incubation at 37 °C
# Method: To compare the uptake of SA‐E and SA‐K, 1 × 10^5 4T1 cells were grown to near confluency (1–2 days) in 96 well plates with black walls and flat glass bottom. 100% Cy5 conjugated PAs (20 or 10 µM) or 10% Cy5 conjugated PA micelles (10 µM Cy5‐PAs mixed with 90 µM maleimide blocked labeled PAs) were preincubated in 10% FBS containing RPMI for 30 min at 37 °C, wells were aspirated, and 100 µL of media containing PAs were added. The plate was incubated for 30 min for the experiments with 100% Cy5 conjugated PAs. Media were aspirated, wells were washed 3x with 150 µL sterile PBS, and then 100 µL RPMI containing 10% FBS was added to each well. The plate was incubated for 1 h at 37 °C. For 10% and 100% Cy5 micelle uptake comparison, plate was incubated for 2 h at 37 °C with PAs. Then, media containing PAs were aspirated and washed with PBS, as above. Cell nuclei were stained with Hoechst (1:5000 dilution in PBS) for 5 min and then removed. 100 µL of phenol red free RPMI containing 10% FBS was added to each well. […] The microscope incubator was preheated for 30 min to reach 35 °C prior to imaging.
# To study the uptake of SA‐E or SA‐K micelles (10% or 100% Cy5 micelles) or No‐SA over time, 4T1 cells were grown to near confluency in a 96 well plate as described above. Cy5 conjugated 100% Cy5 conjugated PAs (20 µM), 10% Cy5 conjugated PAs (10 µM Cy5), or No‐SA (20 µM) or were preincubated in 10% FBS containing RPMI for 30 min at 37 °C. Cell nuclei were stained with Hoechst stain as above. Cell membranes were stained (CellBrite 488, 1:1000 in 10% FBS containing RPMI) for 30 min at 37 °C. Wells were aspirated, and 100 µL of PAs were added to the wells for ≈1 min. Wells were washed with sterile PBS (3x, 150 µL), and Confocal images were taken at different time points (up to 2 h) after PA or No‐SA addition as described above using a 60x objective.
# TRAMP‐C2 tumors = test: Tumor accumulation in wild type or SR‐B1‐/‐ tumors; type: in vivo, mouse; details: 50 nmol IV, 2 days
# Method: (§1) For tumor accumulation studies in subcutaneous (HCT‐116, A375, TRAMP‐C2, MC38, LLC1, RG2, PDX cell lines, wild type or SR‐B1 ‐/‐ TRAMP‐C2, and wild type or LDL‐R ‐/‐ HeLa), intradermal (A375), or fat pad (4T1 and MCF‐7) tumors, cells were implanted as described above. When the tumors reached a size around ≈0.3–1 cm, mice were injected intravenously with 100 µL of ICG conjugated PAs (in PBS, 0.5 mM) or free ICG (in PBS, 0.5 mM). After probe injections, mice were imaged using the IVIS Spectrum (PerkinElmer) with excitation and emission wavelengths of 745 and 820 nm, respectively, at the specified time points. Living Image (PerkinElmer) software was used for all analyses. For MMTV mice experiments, mice were injected intravenously weekly with SA‐E (100 µL PBS, 0.5 mM) between 71 and 85 days of age and imaged 2 days later in the IVIS. […] SA‐E was injected intravenously (100 µL PBS, 0.5 mM), 2 days later the intestinal tissue was harvested, washed, and analyzed in the IVIS for ICG.
# [2] = Clearance study (urine and stool); type: in vivo, mouse; details: 50 nmol IV
# Method: Six Balb/c mice were intravenously injected with 100 µL of either ICG‐conjugated SA‐E or PBS, with three mice in each group. Urine and stool samples were collected from each mouse at different time points up to 7 days. […] Urine from healthy Balb/c mice was collected and pooled to generate a calibration curve. Fluorescence of stool samples was detected using an IVIS (PerkinElmer).
# HeLa tumors = test: Tumor accumulation in wild type or LDL‐R‐/‐ tumors; type: in vivo, mouse; details: 50 nmol IV, 2 days
# Method: as §1
# Toxicity in mice = type: in vivo, mouse; details: wild type mice, 200 nmol IV, 5 mice
# Method: Wild type mice were injected intravenously with ICG conjugated SA‐E at 4 times the dose used previously for imaging (100 µL, 2 mM). 1 day later, blood was removed via cardiac puncture, placed into an EDTA tube, and then centrifuged at 1500 g for 10 min, then 2500 g for 10 min to obtain plasma. The plasma was analyzed for Aspartate Aminotransferase activity (AST) (Abcam, AB105135) and creatinine (Crystal Chem, 80350) following the manufacturer's protocol. For complete blood counts, whole blood (10 µL) was mixed with 2 mM EDTA (10 µL) and analyzed using the HemaVet 950S (Drew Scientific).
# RG2 xenografts = test: Flow cytometry of mCherry expressing RG2 xenografts; type: in vivo, mouse; details: Cy5 SA‐E 50 nmol IV
# Method: RG2‐mCherry cells (100 µL sterile DMEM, 0.5 × 10^7 cells mL^−1) were implanted subcutaneously in nude mice and allowed to grow to 0.5–1 cm. Mice were then injected intravenously with the Cy5 labeled SA‐E (100 µL, 0.5 mM). 2 days later, tumors were extracted, minced, and dissociated using 1 mg mL^−1 solution collagenase/dispase (Roche, 10269638001 and 11097113001) for 45 min at 37 °C. The solution was broken down with pipetting and filtered through a 70 µm filter. The single‐cell solution was suspended in sterile PBS (10 mM, pH 7.4) and then incubated with 1:50 dilution of AlexaFluor 488 Rat Anti‐Mouse CD45 antibody (BD Pharminogen, 567377) for 45 min at room temperature. Finally, the cells were pelleted and, washed and incubated with 5 µM Calcein Blue, AM (Invitrogen, C1429) for 20 min. The cells were then analyzed in BD FACSymphony in the DAPI channel (355 nm laser, 450/50 filter), FITC channel (488 nm laser, 515/30 filter), Cy3 channel (561 nm laser, 586/15 filter), and Cy5 channel (628 nm laser, 670/30 filter). Cells in culture were used to establish size and mCherry intensity. […] Finally, three experimental mice were analyzed in all channels using the gating established from the controls. Gating was performed in FlowJo software.
compound,measurement,setting,value
CCCCCCCCCCCCCCCC(=O)NCC(=O)NCC(=O)NCC(=O)N[C@@H](Cc1c[nH]cn1)C(=O)N[C@@H](C)C(=O)N[C@@H](C)C(=O)N[C@@H](CC(N)=O)C(=O)NCC(=O)N[C@@H](CCC(=O)O)C(=O)N[C@@H](CCC(=O)O)C(=O)N[C@@H](CS)C(=O)N[C@@H](CCC(=O)O)C(=O)O [SA‐E] (Palmitoyl-GGGHAANGEECE-OH),uptake of 10% Cy5 micelles relative to 100% Cy5 micelles,[1],no significant difference
same,"tumor accumulation, SR‐B1 knockout versus wild type tumors",TRAMP‐C2 tumors,not needed for tumor accumulation
same,fluorescence in urine samples,"[2]; any time point up to 7 days, plate reader",No fluorescence signal was detected
same,decline of ICG signal in stool,"[2]; Balb/c mice, IVIS",mostly diminished at 2 days
same,time of peak ICG signal in stool,"[2]; Balb/c mice, IVIS, n = 3",6 h
same,"tumor accumulation, LDL‐R knockout versus wild type tumors",HeLa tumors,not needed for tumor accumulation
same,Aspartate transferase (AST) versus control,Toxicity in mice; 1 day,no difference
same,Creatinine versus control,Toxicity in mice; 1 day,no difference
same,complete blood counts (CBC) versus control,Toxicity in mice; blood 1 day after injection,no difference
same,CD45 and mCherry negative cells (tumor stroma) containing Cy5,RG2 xenografts; 2 days,35%–40
same,CD45 positive only (white blood cells) containing Cy5,RG2 xenografts; 2 days,35%–40
same,enrichment in cancer cells compared to other cells in the tumor,RG2 xenografts; 2 days,approximately two‐fold
same,mCherry expressing cancer cells containing Cy5,"RG2 xenografts; tumors harvested 2 days later, three mice",≈ 70%
